Data as given in publication PMC9405451, “Uptake and Immunomodulatory Properties of Betanin, Vulgaxanthin I and Indicaxanthin towards Caco-2 Intestinal Cells” (Antioxidants, 2022).

Columns and labels:
NOX-1 = NOX-1 mRNA level (qPCR) in cytokine-stimulated Caco-2 cells; assay type: cell-based, human; details: 5–80 μM, 6 h cytokine stimulation, maximum effect
Protocol: (§1) Confluent Caco-2 cells were stimulated with a cocktail of cytokines comprised of tumour necrosis factor-α (TNF-α, 20 ng mL^−1), interleukin-1β (IL-1β, 40 ng mL^−1), interferon-γ (IFN-γ, 10 ng mL^−1) and lipopolysaccharide (LPS, 100 ng mL^−1) in the presence or absence of BET, VUL and IND treatments (5–80 µM) for 6 h. With the completion of incubations, cells were washed with cold DPBS and lysed with TRIsure reagent (Scientific Laboratory Supplies Ltd.). Total RNA of cell samples was extracted in accordance with the manufacturer’s instructions. After resuspending the RNA pellets in DEPC water, concentration and quality were determined using the NanoQuant plate (Tecan Spark 10M plate reader) at 260 and 280 nm. Reverse transcription of RNA was achieved using the iScript™ cDNA Synthesis Kit (Bio-Rad). Transcription levels of target genes—interleukin 6 (IL-6), IL-8, COX-2, iNOS, NADPH oxidase 1 (NOX-1), NAD(P)H quinone dehydrogenase 1 (NQO-1), heme oxygenase 1 (HO-1), glutamate-cysteine ligase catalytic subunit (GCLC), glutathione peroxidase 1 (GPX-1), glutathione S-transferase 1 (GSTA-1) and GSTP-1 were evaluated using SybrGreen based reagent (SensiFast SYBR Green, SLS Ltd., Galveston, TX, USA) via real-time qPCR using StepOne Plus Real-Time PCR System (Applied Biosystems, Nottingham, UK). […]

IL-6 = IL-6 mRNA level (qPCR) in cytokine-stimulated Caco-2 cells; assay type: cell-based, human; details: 5–80 μM, 6 h cytokine stimulation, maximum effect
Protocol: (§2) Confluent Caco-2 cells were stimulated with a cocktail of cytokines comprised of tumour necrosis factor-α (TNF-α, 20 ng mL^−1), interleukin-1β (IL-1β, 40 ng mL^−1), interferon-γ (IFN-γ, 10 ng mL^−1) and lipopolysaccharide (LPS, 100 ng mL^−1) in the presence or absence of BET, VUL and IND treatments (5–80 µM) for 6 h. With the completion of incubations, cells were washed with cold DPBS and lysed with TRIsure reagent (Scientific Laboratory Supplies Ltd.). Total RNA of cell samples was extracted in accordance with the manufacturer’s instructions. After resuspending the RNA pellets in DEPC water, concentration and quality were determined using the NanoQuant plate (Tecan Spark 10M plate reader) at 260 and 280 nm. Reverse transcription of RNA was achieved using the iScript™ cDNA Synthesis Kit (Bio-Rad). Transcription levels of target genes—interleukin 6 (IL-6), IL-8, COX-2, iNOS, NADPH oxidase 1 (NOX-1), NAD(P)H quinone dehydrogenase 1 (NQO-1), heme oxygenase 1 (HO-1), glutamate-cysteine ligase catalytic subunit (GCLC), glutathione peroxidase 1 (GPX-1), glutathione S-transferase 1 (GSTA-1) and GSTP-1 were evaluated using SybrGreen based reagent (SensiFast SYBR Green, SLS Ltd., Galveston, TX, USA) via real-time qPCR using StepOne Plus Real-Time PCR System (Applied Biosystems, Nottingham, UK). Primers of target genes were designed and blasted using the NCBI database, whose PCR product sizes were confirmed by 2% agarose gel electrophoresis. The list of primer sequences used in the study is presented in Supplemental Table S1. The calculation of target gene levels was based upon the Livak (2^−ΔΔCT) method with normalisation to the housekeeping gene, β-actin [31].

iNOS = iNOS mRNA level (qPCR) in cytokine-stimulated Caco-2 cells; assay type: cell-based, human; details: 5–80 μM, 6 h cytokine stimulation, maximum effect
Protocol: as §1

NQO-1 [1] = assay: NQO-1 mRNA level (qPCR) in cytokine-stimulated Caco-2 cells; assay type: cell-based, human; details: 5–80 μM, 6 h cytokine stimulation, vs SC
Protocol: as §1

COX-2 = COX-2 mRNA level (qPCR) in cytokine-stimulated Caco-2 cells; assay type: cell-based, human; details: 5–80 μM, 6 h cytokine stimulation, maximum effect
Protocol: as §1

[2] = EPR DPPH radical scavenging assay; details: 20 μM betalain
Protocol: (§3) Electron paramagnetic resonance (EPR) with spin trapping was used to determine superoxide and DPPH radical scavenging abilities of betalains reflected by the reduction of relative signal strength. EPR spectra were recorded 1 min after reagent mixing on a JEOL X320 spectrometer (X-band) in glass capillaries (0.8 mm ID). Superoxide assay was carried out by mixing the following solutions in 30% aqueous ethanol as solvent: hypoxanthine (1 mM, 55 μL), 5,5-dimethyl-1-pyrroline-N-oxide (DMPO) (1 M, 15 μL) and deferoxamine (10 mM, 10 μL). Individual betalains (200 and 500 μM) or solvent control were subsequently added in a volume of 10 μL. The reaction was initiated by the addition of 2 U mL^−1 xanthine oxidase (10 μL), achieving 20 and 50 μM as final concentrations of betalains in the mixture.
(§4) The 2,2-diphenyl-1-(2,4,6-trinitrophenyl)hydrazyl (DPPH) assay was conducted by mixing ethanol (40 μL) with 30% aqueous ethanol solutions of DPPH (100 μM, 50 μL) and purified betalains (200 μM, 10 μL), providing the working concentration of betalains as 20 μM. In both assays, acquisition of EPR spectra was started 1 min after reagent mixing. To improve the accuracy of measurements, the signal intensity for the superoxide assay was determined in triplicate by fitting the experimental spectra to the simulated superoxide-DMPO adduct spectra.

GCLC = GCLC mRNA level (qPCR) in cytokine-stimulated Caco-2 cells; assay type: cell-based, human; details: 5–80 μM, 6 h cytokine stimulation, vs SC
Protocol: as §1

HO-1 = HO-1 mRNA level (qPCR) in cytokine-stimulated Caco-2 cells; assay type: cell-based, human; details: 5–80 μM, 6 h cytokine stimulation, vs SC
Protocol: as §1

GPX-1 = GPX-1 mRNA level (qPCR) in cytokine-stimulated Caco-2 cells; assay type: cell-based, human; details: 5–80 μM, 6 h cytokine stimulation, vs SC
Protocol: as §1

GSTP-1 = GSTP-1 mRNA level (qPCR) in cytokine-stimulated Caco-2 cells; assay type: cell-based, human; details: 5–80 μM, 6 h cytokine stimulation, vs SC
Protocol: as §1

[3] = design: method as in PMID 18959410; details: purified compound; cited from earlier work
[4] = system: differentiated Caco-2 cells; assay: Intracellular accumulation in differentiated Caco-2 cells; assay type: in vitro ADME, human; details: 250 μM, 2 h incubation in HBSS
Protocol: For accumulation experiments, differentiated Caco-2 cells were incubated with purified BET, VUL and IND (250 μM) for 2 h in HBSS. The cell layer was washed twice with DPBS prior to being scraped into methanol, and pigments were subsequently extracted for LC-MS analysis. The total protein content of lysed cells was determined by bicinchoninic acid (BCA) assay (Pierce™ Thermo Scientific) in accordance with the manufacturer’s instructions.
(§5) Betalain compounds from the cell culture samples were quantified and identified by an ultra-high-speed LC fitted with a UV-Vis detector (SPD-20A), followed by a single quadrupole MS with an electrospray ionisation source (ESI) (Shimazu, 2020). HPLC separation was performed by a reverse phase C18 column (100 mm × 2.1 mm I.D., 3.5 μm) at the temperature of 35 °C. […] Betacyanins and betaxanthins were detected at the wavelengths of 536 nm and 486 nm, respectively, and their molecular weights were monitored by ESI-MS with positive ion mode. Compounds were identified based on the m/z values and quantified using standard curves with purified betalains, as shown in Supplemental Figure S1.

GSTA-1 = GSTA-1 mRNA level (qPCR) in cytokine-stimulated Caco-2 cells; assay type: cell-based, human; details: 5–80 μM, 6 h cytokine stimulation, vs SC
Protocol: as §1

GSTM = system: GSTM; design: method as in PMID 23769299; details: 20 μM, human hepatocytes; cited from earlier work
IL-8 = IL-8 mRNA level (qPCR) in cytokine-stimulated Caco-2 cells; assay type: cell-based, human; details: 5–80 μM, 6 h cytokine stimulation, maximum effect
Protocol: as §2

NQO-1 [5] = system: NQO-1; design: method as in PMID 23769299; details: 20 μM, human hepatocytes; cited from earlier work
Caco-2 cells = assay: Intracellular ROS formation (DCFH2-DA) in H2O2-stressed Caco-2 cells; assay type: cell-based, human; details: throughout concentration range 5–80 μM, 200 μM H2O2
Protocol: The generation of reactive oxygen species (ROS) within Caco-2 cells was determined in 96-well plates with the probe 2′,7′-dichlorodihydrofluorescein diacetate (DCFH2-DA), which is intracellularly deacetylated and oxidised to highly fluorescent 2′,7′-dichlorofluorescein (DCF). DCFH2-DA (30 µM) dissolved in PBS with 1% FBS (v/v) was applied to the confluent Caco-2 cells and incubated for 40 min at 37 °C. After washing, cells were treated with BET, VUL and IND (5–80 μM) for 1 h and subsequently stressed with H2O2 (200 μM) for a further 1 h. The plate was scanned using Tecan Spark 10M^TM with excitation λ of 485 nm and emission λ of 535 nm. Subsequently, the protein content of each well was determined by SRB assay. Briefly, the medium was removed and the cells were washed with PBS and submerged with 50 μL of 0.004% SRB solution (w/v) in 10% trichloroacetic acid (w/v). Cells were incubated at room temperature for 15 min and washed with 1% acetic acid (200 μL, v/v). After treating with Tris base (10 mM, 100 μL), cells were incubated for 5 min under shaking conditions. Finally, the plate was scanned using a Tecan plate reader with excitation λ of 540 nm and emission λ of 590 nm. Results of the ROS assay were normalised to the relative protein content for each well and expressed as the relative fluorescence intensity % (RFI) with respect to the value of positive control.

[6] = EPR spin-trapping superoxide radical scavenging assay; details: 20, 50 μM betalain
Protocol: as §3, §4

[7] = Trans-epithelial transport (AP-to-BL) across differentiated Caco-2 monolayer; assay type: in vitro ADME, human; details: human, Caco-2, 1 mM in AP chamber, apical pH 6.5, basolateral pH 7.5, read-out: Papp (apparent permeability coefficient), absorptive direction AP-to-BL
Protocol: (§6) Trans-epithelial transport of purified betalains (AP-to-BL) was investigated in differentiated Caco-2 cells in 12-well plate transwell inserts (PET membrane, 0.4 μm pore size, Sarstedt) at an initial density of 1 × 10^5 cells cm^−2. Complete medium was added in both apical (AP) and basolateral (BL) chambers and was replaced every 2–3 days. Cell membrane integrity was monitored weekly through measurement of trans-epithelial electrical resistance (TEER) across the growth area until full differentiation of the cells after 21 days. During the experiment, Hanks’ balanced salt solution (HBSS) in the apical compartment was adjusted to pH 6.5 with MES (2 mM), while basolateral pH remained at 7.5 [25]. Purified BET, VUL and IND (420–1000 μM) were supplied to the apical side of the membrane and incubated at 37 °C for up to 2 h. As a marker compound of paracellular transport, phenolsulfonaphtalein (5 mM) was also applied to parallel cell membranes in the apical chamber. The study also evaluated the permeability of compounds through the Caco-2 membrane with a loosened tight junction in parallel wells which was achieved by 5-min incubation of differentiated membrane in trypsin EDTA (0.05%, v/v). The basolateral solution was collected and replaced every 30 min until 2 h, under initial rate conditions. The betalain-containing solutions were processed and submitted to LC-MS analysis, while phenolsulfonaphtalein was quantified spectrophotometrically at λ of 430 nm. TEER values were monitored at the beginning and the end of the experiment to check the impact of compounds on monolayer integrity. The apparent permeability coefficients (Papp) were calculated as per Equation (1), where V = volume of basolateral solution, A = cell growth area, C0 = initial concentration of apical betalain and dC/dt = steady-state flux across the monolayer. (1) Papp=1/C0×A·V×dC/dt
as §5

[8] = system: differentiated Caco-2 cells; assay: as above; assay type: in vitro ADME, human; details: AP-to-BL
Protocol: as §6, §5

**Q.** What does the source list for O=C(O)C1=C/C(=C/C=[N+]2/c3cc(O)c(O[C@@H]4O[C@H](CO)[C@@H](O)[C@H](O)[C@H]4O)cc3C[C@H]2C(=O)[O-])C[C@@H](C(=O)O)N1 [BET, betanin]?
**A.** Attenuation of NOX-1 mRNA levels (NOX-1): up to 34%; Downregulation of IL-6 expression vs cytokine control (SC) (IL-6): up to 50%; Reduction of iNOS mRNA levels (iNOS): < 42%; Upregulation of NQO-1 expression (NQO-1 [1]): < 24%; Attenuation of COX-2 mRNA levels (COX-2): up to 34%; Decrease in EPR signal intensity, DPPH assay [2]: < 71%; Upregulation of GCLC expression (GCLC): < 33%; Upregulation of HO-1 expression (HO-1): < 24%; Upregulation of GPX-1 expression (GPX-1): < 23%; Upregulation of GSTP-1 expression (GSTP-1): < 24%; Loss along the digestion [3]: up to 70%; Intracellular accumulation [4]: 0.02 nmol per mg of protein; Induction of GSTA-1 expression (GSTA-1): < 51%; Increase of GSTM expression in the baseline (GSTM): ~100%; Downregulation of IL-8 expression vs cytokine control (SC) (IL-8): ≤ 39%; Increase of NQO-1 expression in the baseline (NQO-1 [5]): ca. 60%; Suppression of H2O2-stimulated ROS (Caco-2 cells): < 64%; Decrease in EPR signal intensity, superoxide assay [6]: < 35%; Papp A→B at 2 h, 1 mM [7]: 0.415 ×10⁻⁶ cm/s; Proportion transported within 2 h of total amount applied [8]: 1.0%
